Tested on: Hep-G2 cells
Assay: Inhibition of cell proliferation of Hep-G2 cells (intracellular ATP, CellTiterGlo)
Assay type: cell-based
Details: Homo sapiens, HepG2, 72 hours incubation, ATP content, read-out: IC 50 (μM)/HEP G2
Protocol: The antiproliferative activity of product 3 was determined by measuring the inhibition of cell proliferation of Hep-G2 cells. The cells are subcultured in a cell culture medium at a concentration of 1000 cells per well, and incubated for 4 hours at 37° C. and 5% CO2.
Medium used for the Hep-G2 cell culture: Dubelcco's modified Eagle's medium/Ham mixture F12 (Gibco); NEAA (10%; nonessential amino acids, Gibco); sodium pyruvate (1%, Gibco); L-glutamine (1%, Gibco); fetal calf serum (5%; PAA).
After 4 hours, the test products dissolved in a DMSO/cell culture medium mixture are added at various concentrations and the resulting mixtures are incubated for 72 hours at 37° C. and 5% CO2. The intracellular ATP content was measured using the CellTiterGlo test reagent (Promega).

Compound | IC50 [µM]
CO[C@@H](C(=O)N[C@H]1CCCCNC1=O)[C@H](O)[C@@H](O)[C@H](O)/C=C/C(C)C [Bengamide E] | 7
CCC(C)/C=C/[C@@H](O)[C@H](O)[C@@H](O)[C@@H](OC)C(=O)N[C@H]1CCCCN(Cc2ccccc2)C1=O (stereo partly drawn) [Example 3, N-[(S)-1-(4-benzyl)-2-oxoperhydroazepin-3-yl]-(E)-(2R,3R,4S,5R)-3,4,5-trihydroxy-2-methoxy-8-methyldec-6-enamide] | 0.02
